Patent US8987481B1, “Method for isolation of bulk anthocyanidins and other bioactives” (priority 2013, dated 2015)

Test: Storage stability of isolated anthocyanidins
Format: physicochemical
Protocol: The isolated anthos are stable when stored in amber bottles under argon at −20° C. […] However, when bound to cellulose, these compounds can be stabilized for a long period of time. Edible cellulose formulations that are used routinely in beverage and food industries are commercially available. Therefore, anthos isolated by the method described here can be readily stabilized with edible cellulose or pectin or other edible materials and used in beverages and foods to provide natural colors, as well as used as nutraceuticals and provide health benefits due to known antioxidant, antiproliferative and anticancer activities of anthos.

Q: Which “stability in solution form” value does the source give for anthocyanins here?
A: highly unstable
